Experimental data as given in patent US20130336940A1, “MODIFIED PIG ISLETS FOR DIABETES TREATMENT” (UNIVERSITE CATHOLIQUE DE LOUVAIN, priority 2011, published 2013).

What was measured:
[1] = test system: isolated pig islets; assay: In vitro islet functionality (24 hr incubation at G5, G15, G15+Fsk; insulin/glucagon RIA); format: cell-based
Procedure: The following steps were performed with the samples kept on ice. […] The samples were then sonicated 4×20 seconds (Sonifier B 12 [Branson Sonic Power Company, Danbury, Conn., USA]) and centrifugated 10 minutes at 4° C. at 1500 rpm. The first supernatant formed was removed and kept at −20° C. […] The samples were then kept at −20° C. overnight. After a step of centrifugation 10 minutes at 4° C. at 1500 rpm, the second supernatant was removed and kept at −20° C. […] The three supernatants were then pooled and constituted the pancreas extract. Human insulin specific RIA KIT and Glucagon RIA KIT (Millipore, Billerica, Mass., USA) were used for the determination of the hormonal content in human/pig pancreatic extractions as well as in isolated islets (see below). The content of insulin and glucagon in the extracts was performed following the instructions of the manufacturer. […] After incubation overnight at room temperature, 1 mL of precipitating reagent were added, followed by incubation 20 minutes at 4° C. The samples were then centrifuged 20 minutes at 2000-3000×g at 4° C.
Three replicates per concentration were performed. Media were thereafter recovered for insulin and glucagon quantification and islets were transferred in acid-ethanol for hormones extraction and quantification by radioimmuno-assay (see above).

[2] = test system: islets from wild-type pigs; assay: Insulin release of wild-type pig islets with exogenous GLP-1; format: cell-based
Procedure: After isolation from wild-type pigs, islets were incubated overnight at 37° C., 5% CO2/95% O2 in RMPI medium containing 10% heat-inactivated FCS, 100 IU/ml penicillin, 100 μg/ml streptomycin and 5 mmol/l glucose. The function of islets in different culture conditions was assessed by 2 or 24 hr incubation of 200 islets in 1.5 ml buffer containing (i) 1 mmol/l glucose, (ii) 15 mmol/l glucose, (iii) 15 mmol/l glucose+[…] Forskolin (fsk) (Calbiochem-Behring, San Diego, Calif.) (added from a 1 mmol/l stock solution in DMSO), (iv) 15 mmol/l glucose+1 μmol/l fsk, (v) 15 mmol/l glucose+5 nM GLP-1 (Sigma Aldrich), (vi) 15 mmol/l glucose+50 nM GLP-1, (vii) 15 mmol/l glucose+500 nM GLP-1, (viii) 15 mmol/l glucose+1 μmol/l fsk+50 nM GLP-1. Three replicates per concentration were performed. Media were thereafter recovered for insulin quantification and islets were transferred in acid-ethanol for hormones extraction and quantification by radioimmuno-assay (Human insulin RIA kit, Millipore, Billerica, Mass., USA).

[3] = test system: adult pig islets; conditions: cited from earlier work
[4] = 15 mmol/l glucose + 1 μmol/l Fsk, native and treated pig islets

In the case of `C=C[C@@]1(C)CC(=O)[C@]2(O)[C@@]3(C)[C@@H](O)CCC(C)(C)[C@@H]3[C@H](O)[C@H](OC(C)=O)[C@@]2(C)O1` [Fsk, Forskolin], the “increase in insulin secretion after G15+Fsk in comparison with G5 and G15” value ([1]; 1 μmol/l Fsk, native and treated islets) is reported as 2 to 4 fold, the “effect on glucagon secretion or content” value [1, 4] is reported as “No effect” and the “effect on insulin content” value [1, 4] is reported as “No effect”.
For “GLP-1: exogenous GLP-1 (Sigma Aldrich) added to wild-type pig islets”, the “increase of insulin release” value ([2]; 500 nM GLP-1, glucose 15 mM, 24 hrs incubation) was 12%, the “stimulation index (ratio of insulin release at glucose 15 mM vs. 1 mM)” value ([2]; GLP-1 at 500 nM) was “significant increase” and the “increase of insulin release in comparison to glucose 15 mM alone” value ([2]; GLP-1 at 50-500 nM, glucose 15 mM, 2 hrs incubation) was 10%.
For “glucagon: peptide hormone added to adult pig islets in cited literature studies”, the “increase of stimulation index” value ([3]; acute exposure to 1 or 10 μM glucagon) is listed as 30% and the “basal insulin release in comparison with control situation” value ([3]; islets cultured in the presence of 10 μM glucagon) is listed as 2 fold.
